Results reported in article doi:10.1101/2021.06.16.448769v1 (bioRxiv, 2021).
Read-outs that look alike come from different tables or passages of the source. Bridge positions count the residues as written; N and C are the ends. Square brackets hold non-standard residues; d marks the D form. Ends that are not written are not given here. Peptide text beside a SMILES is read from it. * marks the point of attachment. Cam = NC(=O)C*

Experiments:
human C5 = human C5 (Homo sapiens, UniProt P01031); test: SPR multi-cycle kinetics, binding to human C5; settings: for fold change in KD relative to parent: relative to the unmodified parent knob domain, Figure 5H
[1] = tested on: C5 activation (C5b-6), alternative pathway; test: Alternative pathway; assay type: biochemical
[2] = KD, peptide after reduction and capping of cysteines with iodoacetamide (IAM)
[3] = KD, reduced and IAM-capped knob domains, S4
[4] = reduced and IAM-capped knob domains, S4

Chain of human C5 (P01031 19-673 limits assumed): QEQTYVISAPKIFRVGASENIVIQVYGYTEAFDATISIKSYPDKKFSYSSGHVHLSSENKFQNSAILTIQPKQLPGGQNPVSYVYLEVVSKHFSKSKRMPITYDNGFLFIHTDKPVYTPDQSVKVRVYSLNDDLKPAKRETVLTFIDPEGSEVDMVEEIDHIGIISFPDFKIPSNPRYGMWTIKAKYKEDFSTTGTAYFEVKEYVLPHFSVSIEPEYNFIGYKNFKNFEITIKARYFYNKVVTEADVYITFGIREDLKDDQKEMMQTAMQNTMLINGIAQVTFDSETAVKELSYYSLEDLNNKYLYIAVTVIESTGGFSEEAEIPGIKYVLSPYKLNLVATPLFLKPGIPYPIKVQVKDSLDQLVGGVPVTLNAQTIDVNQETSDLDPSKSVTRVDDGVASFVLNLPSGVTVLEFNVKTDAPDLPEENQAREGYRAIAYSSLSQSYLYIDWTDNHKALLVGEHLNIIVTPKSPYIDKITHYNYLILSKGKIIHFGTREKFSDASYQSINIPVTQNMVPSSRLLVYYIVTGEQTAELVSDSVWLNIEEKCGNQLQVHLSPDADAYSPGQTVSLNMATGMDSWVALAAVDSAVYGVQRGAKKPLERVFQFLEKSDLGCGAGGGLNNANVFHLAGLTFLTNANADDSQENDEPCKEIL
Chain of human C5 (P01031 678-1676 limits assumed): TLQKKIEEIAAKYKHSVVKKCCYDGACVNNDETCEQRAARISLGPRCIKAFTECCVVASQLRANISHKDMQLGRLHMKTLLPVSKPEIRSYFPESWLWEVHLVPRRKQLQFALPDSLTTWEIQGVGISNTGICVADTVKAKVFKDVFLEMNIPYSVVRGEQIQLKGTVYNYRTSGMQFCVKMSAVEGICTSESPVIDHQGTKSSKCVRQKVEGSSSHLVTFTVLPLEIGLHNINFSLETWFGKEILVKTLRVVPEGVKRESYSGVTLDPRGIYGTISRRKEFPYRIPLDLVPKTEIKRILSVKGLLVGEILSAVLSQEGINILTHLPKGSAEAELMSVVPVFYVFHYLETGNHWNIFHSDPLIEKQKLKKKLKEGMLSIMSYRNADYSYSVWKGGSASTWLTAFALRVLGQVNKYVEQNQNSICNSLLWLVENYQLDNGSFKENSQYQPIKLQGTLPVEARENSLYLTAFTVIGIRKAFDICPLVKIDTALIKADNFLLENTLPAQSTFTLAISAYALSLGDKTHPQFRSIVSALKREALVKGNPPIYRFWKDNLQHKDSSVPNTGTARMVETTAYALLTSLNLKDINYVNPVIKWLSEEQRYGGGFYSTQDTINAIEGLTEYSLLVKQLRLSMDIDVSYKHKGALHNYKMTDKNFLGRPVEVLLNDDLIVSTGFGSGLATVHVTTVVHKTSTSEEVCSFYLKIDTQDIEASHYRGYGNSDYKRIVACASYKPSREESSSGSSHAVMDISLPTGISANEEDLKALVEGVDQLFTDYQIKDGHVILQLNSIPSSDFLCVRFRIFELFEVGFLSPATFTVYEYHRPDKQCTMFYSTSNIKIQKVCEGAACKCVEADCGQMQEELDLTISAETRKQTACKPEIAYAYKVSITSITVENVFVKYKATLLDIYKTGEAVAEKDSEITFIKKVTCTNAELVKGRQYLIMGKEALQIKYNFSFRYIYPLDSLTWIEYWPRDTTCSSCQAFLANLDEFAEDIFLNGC

## CC[C@H](C)[C@@H]1NC(=O)[C@H](CC(N)=O)NC(=O)[C@H](C(C)C)NC(=O)CNC(=O)[C@@H]2CSSC[C@@H](C(=O)NCC(=O)N[C@@H](Cc3c[nH]cn3)C(=O)N[C@@H](Cc3ccccc3)C(=O)N[C@@H](CC(C)C)C(=O)N[C@@H](CC(N)=O)C(=O)N[C@@H](CO)C(=O)NCC(=O)N3CCC[C@H]3C(=O)N[C@@H](CC(N)=O)C(=O)N[C@H](C(=O)N[C@@H](CO)C(=O)N3CCC[C@H]3C(=O)N[C@@H](Cc3ccc(O)cc3)C(=O)N[C@H](C(=O)N[C@@H](CO)C(=O)N[C@H](C(=O)O)[C@@H](C)O)C(C)C)[C@@H](C)CC)NC(=O)CNC(=O)[C@H](Cc3c[nH]c4ccccc34)NC(=O)[C@H](CCCNC(=N)N)NC(=O)CNC(=O)[C@H](CSSC[C@H](NC(=O)[C@@H](N)[C@@H](C)O)C(=O)N3CCC[C@H]3C(=O)N[C@@H](CCC(=O)O)C(=O)NCC(=O)N[C@@H](Cc3c[nH]c4ccccc34)C(=O)N[C@@H](CO)C(=O)N[C@@H](CCC(=O)O)C(=O)N2)NC(=O)[C@H](CCC(=O)O)NC(=O)[C@H](Cc2ccc(O)cc2)NC(=O)CNC(=O)[C@H](Cc2ccc(O)cc2)NC1=O [K92chemFE A12N] (H-TCPEGWSECGVNIYGYECGRWGCGHFLNSGPNISPYVST-OH; disulfide 2-18, 9-23; N-terminus and C-terminus assumed)
Human C5
  fold change in KD relative to parent: 4.6

## CC[C@H](C)[C@H](NC(=O)[C@H](CC(N)=O)NC(=O)[C@@H]1CCCN1C(=O)CNC(=O)[C@H](CO)NC(=O)[C@H](CC(N)=O)NC(=O)[C@H](CC(C)C)NC(=O)[C@H](Cc1ccccc1)NC(=O)[C@H](Cc1c[nH]cn1)NC(=O)CNC(=O)[C@@H]1CSSC[C@@H]2NC(=O)[C@H](CCC(=O)O)NC(=O)[C@H](CO)NC(=O)[C@H](Cc3c[nH]c4ccccc34)NC(=O)CNC(=O)[C@H](CCC(=O)O)NC(=O)[C@@H]3CCCN3C(=O)[C@@H](NC(=O)[C@@H](N)[C@@H](C)O)CSSC[C@H](NC(=O)[C@H](CCC(=O)O)NC(=O)[C@H](Cc3ccc(O)cc3)NC(=O)CNC(=O)[C@H](Cc3ccc(O)cc3)NC(=O)[C@H]([C@@H](C)CC)NC(=O)[C@@H](Cc3c[nH]c4ccccc34)NC(=O)[C@H](C(C)C)NC(=O)CNC2=O)C(=O)NCC(=O)N[C@@H](CCCNC(=N)N)C(=O)N[C@@H](Cc2c[nH]c3ccccc23)C(=O)NCC(=O)N1)C(=O)N[C@@H](CO)C(=O)N1CCC[C@H]1C(=O)N[C@@H](Cc1ccc(O)cc1)C(=O)N[C@H](C(=O)N[C@@H](CO)C(=O)N[C@H](C(=O)O)[C@@H](C)O)C(C)C [K92chemFE A12d-W] (H-TCPEGWSECGV[dW]IYGYECGRWGCGHFLNSGPNISPYVST-OH; disulfide 2-18, 9-23; N-terminus and C-terminus assumed)
Human C5
  fold change in KD relative to parent: 165.6

## CC[C@H](C)[C@@H]1NC(=O)[C@H](CCCCNC(C)=O)NC(=O)[C@H](C(C)C)NC(=O)CNC(=O)[C@@H]2CSSC[C@@H](C(=O)NCC(=O)N[C@@H](Cc3c[nH]cn3)C(=O)N[C@@H](Cc3ccccc3)C(=O)N[C@@H](CC(C)C)C(=O)N[C@@H](CC(N)=O)C(=O)N[C@@H](CO)C(=O)NCC(=O)N3CCC[C@H]3C(=O)N[C@@H](CC(N)=O)C(=O)N[C@H](C(=O)N[C@@H](CO)C(=O)N3CCC[C@H]3C(=O)N[C@@H](Cc3ccc(O)cc3)C(=O)N[C@H](C(=O)N[C@@H](CO)C(=O)N[C@H](C(=O)O)[C@@H](C)O)C(C)C)[C@@H](C)CC)NC(=O)CNC(=O)[C@H](Cc3c[nH]c4ccccc34)NC(=O)[C@H](CCCNC(=N)N)NC(=O)CNC(=O)[C@H](CSSC[C@H](NC(=O)[C@@H](N)[C@@H](C)O)C(=O)N3CCC[C@H]3C(=O)N[C@@H](CCC(=O)O)C(=O)NCC(=O)N[C@@H](Cc3c[nH]c4ccccc34)C(=O)N[C@@H](CO)C(=O)N[C@@H](CCC(=O)O)C(=O)N2)NC(=O)[C@H](CCC(=O)O)NC(=O)[C@H](Cc2ccc(O)cc2)NC(=O)CNC(=O)[C@H](Cc2ccc(O)cc2)NC1=O [K92chemFE A12K(Ac)] (H-TCPEGWSECGVK(Ac)IYGYECGRWGCGHFLNSGPNISPYVST-OH; disulfide 2-18, 9-23; N-terminus and C-terminus assumed)
[1]
  effect in AP ELISA (in words): two-fold increase in efficacy
Human C5
  fold change in KD relative to parent: 130.2

## CSCC[C@@H]1NC(=O)[C@@H]2CCCN2C(=O)[C@@H](NC(=O)[C@@H]2CSSC[C@H](NC(=O)[C@@H](N)CO)C(=O)N3CCC[C@H]3C(=O)N[C@@H](CC(=O)O)C(=O)NCC(=O)N[C@@H](Cc3ccccc3)C(=O)N[C@@H](CO)C(=O)N[C@@H](Cc3ccc(O)cc3)C(=O)N[C@@H](CCCNC(=N)N)C(=O)N[C@@H](CO)C(=O)N[C@@H](Cc3c[nH]c4ccccc34)C(=O)N[C@@H](CC(=O)O)C(=O)N[C@@H](CC(=O)O)C(=O)N[C@@H](Cc3ccccc3)C(=O)N2)CSSC[C@@H](C(=O)N[C@@H](CC(C)C)C(=O)N[C@@H](C)C(=O)N2CCC[C@H]2C(=O)N[C@@H](CCCNC(=N)N)C(=O)N[C@@H](CC(N)=O)C(=O)O)NC(=O)[C@H](CCCNC(=N)N)NC(=O)CNC(=O)[C@H](C(C)C)NC1=O [K149chemSD-A] (H-SCPDGFSYRSWDDFCCPMVGRCLAPRN-OH; disulfide 2-15, 16-22; N-terminus assumed)
Human C5; read-out: mean KD, SPR multi-cycle kinetics, mean of n=3
  Kd: 7.3 nM

## GC(Cam)PPGYKSGVDC(Cam)SPGSEC(Cam)KWGC(Cam)YAVDGRRYGGYGADSGVGS-OH [K57chemFE reduced and capped]
Human C5; [2]
  Kd: 76 nM
Human C5; [3]
  Kd: 75.6 nM
Human C5; [4]
  koff: 0.000358 s⁻¹
  kon: 4740 M⁻¹ s⁻¹

## cyclo(ADSGVGSTGCPPGYKSGVDCSPGSECKWGCYAVDGRRYGGYG) (disulfide 10-26, 20-30 (inferred); ring closure inferred) [K57chemFE^cyclic]
Human C5
  fold change in KD relative to parent: 0.8

## CC[C@H](C)[C@@H]1NC(=O)[C@H](C)NC(=O)[C@H](C(C)C)NC(=O)CNC(=O)[C@@H]2CSSC[C@@H]3NC(=O)CNC(=O)[C@H](Cc4c[nH]c5ccccc45)NC(=O)[C@H](CCCNC(=N)N)NC(=O)CNC(=O)[C@H](CSSC[C@H](NC(=O)[C@H]([C@@H](C)O)NC(=O)[C@H](Cc4ccc(O)cc4)NC(=O)[C@@H]4CCCN4C(=O)[C@H](CO)NC(=O)[C@H]([C@@H](C)CC)NC(=O)[C@H](CC(N)=O)NC(=O)[C@@H]4CCCN4C(=O)CNC(=O)[C@H](CO)NC(=O)[C@H](CC(N)=O)NC(=O)[C@H](CC(C)C)NC(=O)[C@H](Cc4ccccc4)NC(=O)[C@H](Cc4c[nH]cn4)NC(=O)CNC3=O)C(=O)N3CCC[C@H]3C(=O)N[C@@H](CCC(=O)O)C(=O)NCC(=O)N[C@@H](Cc3c[nH]c4ccccc34)C(=O)N[C@@H](CO)C(=O)N[C@@H](CCC(=O)O)C(=O)N2)NC(=O)[C@H](CCC(=O)O)NC(=O)[C@H](Cc2ccc(O)cc2)NC(=O)CNC(=O)[C@H](Cc2ccc(O)cc2)NC1=O [K92chemFE^cyclic] (cyclo(AIYGYECGRWGCGHFLNSGPNISPYTCPEGWSECGV); disulfide 7-27, 12-34)
Human C5
  fold change in KD relative to parent: 39.7

## CC[C@H](C)[C@H](NC(=O)[C@H](C)NC(=O)[C@@H](NC(=O)CNC(=O)[C@H](CSCC(N)=O)NC(=O)[C@H](CCC(=O)O)NC(=O)[C@H](CO)NC(=O)[C@H](Cc1c[nH]c2ccccc12)NC(=O)CNC(=O)[C@H](CCC(=O)O)NC(=O)[C@@H]1CCCN1C(=O)[C@H](CSCC(N)=O)NC(=O)[C@@H](N)[C@@H](C)O)C(C)C)C(=O)N[C@@H](Cc1ccc(O)cc1)C(=O)NCC(=O)N[C@@H](Cc1ccc(O)cc1)C(=O)N[C@@H](CCC(=O)O)C(=O)N[C@@H](CSCC(N)=O)C(=O)NCC(=O)N[C@@H](CCCNC(=N)N)C(=O)N[C@@H](Cc1c[nH]c2ccccc12)C(=O)NCC(=O)N[C@@H](CSCC(N)=O)C(=O)NCC(=O)N[C@@H](Cc1c[nH]cn1)C(=O)N[C@@H](Cc1ccccc1)C(=O)N[C@@H](CC(C)C)C(=O)N[C@@H](CC(N)=O)C(=O)N[C@@H](CO)C(=O)NCC(=O)N1CCC[C@H]1C(=O)N[C@@H](CC(N)=O)C(=O)N[C@H](C(=O)N[C@@H](CO)C(=O)N1CCC[C@H]1C(=O)N[C@@H](Cc1ccc(O)cc1)C(=O)N[C@H](C(=O)N[C@@H](CO)C(=O)N[C@H](C(=O)O)[C@@H](C)O)C(C)C)[C@@H](C)CC [K92 chemFE reduced and capped] (H-TC(Cam)PEGWSEC(Cam)GVAIYGYEC(Cam)GRWGC(Cam)GHFLNSGPNISPYVST-OH; N-terminus assumed)
Human C5; [2]
  Kd: 2000 nM
Human C5; [3]
  Kd: 2350 nM
Human C5; [4]
  koff: 0.000172 s⁻¹
  kon: 72.9 M⁻¹ s⁻¹

## CSCC[C@@H]1NC(=O)[C@@H]2CCCN2C(=O)[C@@H]2CSSC[C@H](NC(=O)[C@H](CCCNC(=N)N)NC(=O)CNC(=O)[C@H](C(C)C)NC1=O)C(=O)N[C@@H](CC(C)C)C(=O)N[C@@H](C)C(=O)N1CCC[C@H]1C(=O)N[C@@H](CCCNC(=N)N)C(=O)N[C@@H](CC(N)=O)C(=O)N[C@@H]([C@@H](C)O)C(=O)N[C@@H](CO)C(=O)N[C@H]1CSSC[C@H](NC(=O)[C@H](Cc3ccccc3)NC(=O)[C@H](CC(=O)O)NC(=O)[C@H](CC(=O)O)NC(=O)[C@H](Cc3c[nH]c4ccccc34)NC(=O)[C@H](CO)NC(=O)[C@H](CCCNC(=N)N)NC(=O)[C@H](Cc3ccc(O)cc3)NC(=O)[C@H](CO)NC(=O)[C@H](Cc3ccccc3)NC(=O)CNC(=O)[C@H](CC(=O)O)NC(=O)[C@@H]3CCCN3C1=O)C(=O)N2 [K149chemFE^cyclic] (cyclo(APRNTSCPDGFSYRSWDDFCCPMVGRCL); disulfide 7-20, 21-27 (inferred); ring closure inferred)
Human C5
  fold change in KD relative to parent: 0.2
